Values after ≈ are worked out from the molar mass of the structure shown.
Tests used:
Assay in all cases: ≥ marks a high value that may be exact or a test limit, other limits are often not marked, values filed in µg/mL are converted to µM
Escherichia coli BL21 = tested on: Escherichia coli BL21
[1] = tested on: Bacillus subtilis ISW 1214
[2] = tested on: Micrococcus luteus ATCC 49732
[3] = tested on: Staphylococcus saprophyticus ATCC 15305
[4] = tested on: Streptococcus agalactiae ATCC 12386
[5] = tested on: Neisseria gonorrhoeae ATCC 49226
[6] = tested on: Salmonella enterica subsp. enterica serovar Typhimurium ATCC 14028
[7] = tested on: Enterococcus faecalis ATCC 29212
[8] = tested on: Staphylococcus aureus ATCC 25923
[9] = tested on: Escherichia coli ATCC 25922
[10] = tested on: Proteus vulgaris ATCC 49132
[11] = tested on: Shigella sonnei ATCC 25931
[12] = tested on: Klebsiella pneumoniae ATCC 700603
[13] = tested on: Staphylococcus epidermidis ATCC 12228
[14] = tested on: Staphylococcus aureus ATCC 43330
Serratia sp. ATCC 39006 = tested on: Serratia sp. ATCC 39006
[15] = tested on: Enterococcus faecium CGMCC 1.2334
Escherichia coli AS1.349 = tested on: Escherichia coli AS1.349
[16] = tested on: Enterobacter cloacae CGMCC 1.58
[17] = tested on: Staphylococcus aureus AS1.72
[18] = tested on: Klebsiella pneumoniae subsp. pneumoniae CGMCC 1.176
[19] = tested on: Staphylococcus epidermidis
Bacillus cereus AS1.126 = tested on: Bacillus cereus AS1.126
[20] = tested on: Proteus mirabilis CICC 22931
[21] = tested on: Staphylococcus epidermidis CICC 23664
[22] = tested on: Pseudomonas aeruginosa CGMCC 1.860
[23] = tested on: Pseudomonas aeruginosa 0108
[24] = tested on: Enterococcus faecalis CGMCC 1.595

In the case of `CC(=O)NCC(=O)N[C@@H](Cc1c[nH]c2ccccc12)C(=O)N[C@@H](CCC(N)=O)C(=O)N[C@@H](CC(C)C)C(=O)N[C@@H](CC(C)C)C(=O)N[C@@H](C)C(=O)N[C@@H](CC(C)C)C(=O)N[C@@H](Cc1cnc[nH]1)C(=O)N[C@@H](CC(C)C)C(=O)N[C@@H](CCC(N)=O)C(=O)N[C@@H](CC(C)C)C(=O)N[C@@H](CC(C)C)C(=O)NCC(=O)N[C@@H](CC(C)C)C(=O)N[C@@H](Cc1cnc[nH]1)C(=O)N[C@@H](CC(C)C)C(=O)N[C@@H](CC(C)C)C(=O)N[C@@H](CCC(N)=O)C(=O)N[C@@H](CC(C)C)C(=O)N[C@@H](C)C(=O)N[C@@H](CC(C)C)C(=O)N[C@@H](CC(C)C)C(=O)N[C@@H](CCC(N)=O)C(=O)N[C@@H](CCCN=C(N)N)C(=O)N[C@@H](CCCN=C(N)N)C(=O)N[C@@H](CCCN=C(N)N)C(N)=O` [GWQLLALHLQLLGLHLLQLALLQRRR], the MIC (Escherichia coli BL21) is reported as at least 160 µM and the MIC [1] is reported as at least 160 µM.
Work on `CC[C@H](C)[C@H](NC(=O)CNC(=O)[C@H](C)NC(=O)[C@H](C)NC(=O)[C@@H](NC(=O)[C@@H](NC(=O)[C@H](CC(N)=O)NC(=O)[C@@H](NC(=O)[C@H](C)NC(=O)[C@@H](NC(=O)[C@@H]1CCCN1C(=O)[C@@H](NC(=O)[C@H](CC(C)C)NC(=O)[C@@H]1CCCN1C(=O)[C@H](Cc1c[nH]c2ccccc12)NC(=O)[C@H](Cc1ccccc1)NC(=O)[C@H](CCCN=C(N)N)NC(=O)[C@H](CCCCN)NC(=O)[C@@H](NC(=O)[C@@H](N)CCCN=C(N)N)C(C)C)C(C)C)C(C)C)[C@@H](C)CC)[C@@H](C)O)C(C)C)C(=O)N[C@@H](CC(N)=O)C(=O)N[C@@H](CC(C)C)C(=O)N[C@@H](Cc1ccc(O)cc1)C(=O)N[C@@H](CCCCN)C(=O)N[C@@H](C)C(=O)N[C@H](C(=O)N[C@@H](CCCN=C(N)N)C(=O)N[C@@H](CCCN=C(N)N)C(=O)N[C@@H](CCCCN)C(N)=O)[C@@H](C)CC` [RVKRFWPLVPVAINTVAAGINLYKAIRRK] yielded an MIC [2] of 0.63 µM (≈ 2.11 µg/mL), an MIC [3] of 1.22 µM (≈ 4.1 µg/mL) and an MIC [4] of 1.4 µM (≈ 4.7 µg/mL). It also gave an MIC [5] of 2.49 µM (≈ 8.33 µg/mL), an MIC [6] of 2.15 µM (≈ 7.21 µg/mL) and an MIC [7] of 0.934 µM (≈ 3.13 µg/mL). For the same compound, the MIC [8] was 1.22 µM (≈ 4.1 µg/mL), the MIC [9] was 0.934 µM (≈ 3.13 µg/mL) and the MIC [10] was 2.49 µM (≈ 8.33 µg/mL). The MIC [11] was 0.537 µM (≈ 1.8 µg/mL), the MIC [12] was 2.15 µM (≈ 7.21 µg/mL) and the MIC [13] was 2.49 µM (≈ 8.33 µg/mL). It also gave an MIC [14] of 3.73 µM (≈ 12.5 µg/mL) and an MIC (Serratia sp. ATCC 39006) of 0.63 µM (≈ 2.11 µg/mL).
Compound `CC[C@H](C)[C@H](NC(=O)[C@H](CCCCN)NC(=O)[C@H](CO)NC(=O)[C@H](Cc1c[nH]c2ccccc12)NC(=O)[C@@H](NC(=O)[C@H](CCCCN)NC(=O)[C@H](CCCCN)NC(=O)[C@@H](N)Cc1c[nH]c2ccccc12)[C@@H](C)CC)C(=O)N[C@@H](CCCCN)C(=O)N[C@@H](CCCCN)C(=O)N[C@@H](CC(C)C)C(=O)N[C@@H](CC(C)C)C(=O)N[C@@H](CCCCN)C(N)=O` [WKKIWSKIKKLLK] has an MIC [15] of 3.13 µM (≈ 5.32 µg/mL), an MIC (Escherichia coli AS1.349) of 6.25 µM (≈ 10.6 µg/mL) and an MIC [16] of 3.13 µM (≈ 5.32 µg/mL). The MIC [17] was 3.13 µM (≈ 5.32 µg/mL), the MIC [18] was 25 µM (≈ 42.5 µg/mL) and the MIC [19] was 3.12 µM (≈ 5.3 µg/mL). For the same compound, the MIC (Bacillus cereus AS1.126) was 3.13 µM (≈ 5.32 µg/mL), the MIC [20] was 6.25 µM (≈ 10.6 µg/mL) and the MIC [21] was 1.56 µM (≈ 2.65 µg/mL). The MIC [22] was 6.25 µM (≈ 10.6 µg/mL), the MIC [23] was 12.5 µM (≈ 21.2 µg/mL) and the MIC [24] was 1.56 µM (≈ 2.65 µg/mL).
